Reference: patent US20260200902A1, “CRYSTALLINE FORMS OF 7-CHLORO-2-(4-(3-METHOXYAZETIDIN-1-YL)CYCLOHEXYL)-2,4- DIMETHYL-N-((6-METHYL-4-(METHYLTHIO)-2-OXO-1,2-DIHYDROPYRIDIN-3-YL)METHYL)BENZO [D][1,3]DIOXOLE-5-CARBOXAMIDE” (Constellation Pharmaceuticals, Inc., priority 2019, published 2026)
Entries after “also recorded” stand apart in the source; their conditions may differ.

Assays:
Type in all cases: physicochemical
[1] = Gravimetric vapour sorption (GVS) analysis; conditions: for XRPD post GVS (solid form): after GVS analysis
[2] = Static stability storage at elevated RH (5 days), XRPD and HPLC; conditions: for Solid form by XRPD after storage: stored for 5 days at elevated RH conditions
[3] = Relative stability of crystalline forms (polymorph screening and competitive slurry experiments); conditions: Form 1 versus Form 2
Protocol: The amorphous form of Compound 1 samples with different purities, one with 95.2% purity (30 mg) and another with 97.6% purity (20 mg), were each suspended or dissolved in 10-30 vol of a given solvent at RT. After 5 m n equilibration at RT, all samples (solutions and suspensions) were heated to 50° C. for 10 minutes and the resulting samples were treated as follows: Suspensions were matured between 60 and 5 FC for 72 hrs (4 hrs at each temperature). Solutions were cooled from 50 to 5° C. at 0.1° C./min and maintained at 5° C. for 72 hrs. If no solid was obtained, the solutions were allowed to evaporate at RT. All the recovered solids were analyzed by XRPD and subsequently by the appropriate techniques. See Tables 1-3 for screening procedures and analytical results.

Row | Compound | Hygroscopicity by GVS analysis [1] | XRPD post GVS (solid form) [1] | Static stability, HPLC ([2]; 25° C./97% RH (5 days)) [%] | Static stability, XRPD ([2]; 25° C./97% RH (5 days)) | Static stability, HPLC ([2]; 40° C./75% RH (5 days)) [%] | Static stability, XRPD ([2]; 40° C./75% RH (5 days)) | Solid form by XRPD after storage [2] | Relative stability of crystalline form [3]
1 | COC1CN(C2CCC(C3(C)Oc4c(Cl)cc(C(=O)NCc5c(SC)cc(C)[nH]c5=O)c(C)c4O3)CC2)C1 (centres unmarked) [Form 1, 7-chloro-2-(4-(3-methoxyazetidin-1-yl)cyclohexyl)-2,4-dimethyl-N-((6-methyl-4-(methylthio)-2-oxo-1,2-dihydropyridin-3-yl)methyl)benzo[d][1,3]dioxole-5-carboxamide] | slightly hygroscopic | remained Form 1; also recorded: showed the material remained Pattern 1 | 96.8 | XRPD: Slight reduction in crystallinity,; also recorded: remained pattern 1 | 96.5 | XRPD: Slight reduction in crystallinity,; also recorded: remained pattern 1 | remained Form 1 | more stable than Form 2
2 | COC1CN(C2CCC(C3(C)Oc4c(Cl)cc(C(=O)NCc5c(SC)cc(C)[nH]c5=O)c(C)c4O3)CC2)C1 (centres unmarked) [Form 2, 7-chloro-2-(4-(3-methoxyazetidin-1-yl)cyclohexyl)-2,4-dimethyl-N-((6-methyl-4-(methylthio)-2-oxo-1,2-dihydropyridin-3-yl)methyl)benzo[d][1,3]dioxole-5-carboxamide] |  | became amorphous |  |  |  |  | became amorphous | less stable crystalline form than Form 1
